Patent US11911373B2, “Attention evaluation and methods for medicating” (TECHNION RESEARCH & DEVELOPMENT FOUNDATION LIMITED, priority 2018, dated 2024)

Experiments:
[1] = system: children suffering from ADHD; experiment: Auditory Sustained Attention Test (ASAT, pre-pulse inhibition) before and 1 hour after MPH; type: in vivo, human; settings: re-test about 1 hour after taking MPH, versus baseline
Description: (§1) Test subjects were escorted by their parents, and were asked not to take the MPH treatment in the morning of the experiment, and not to drink stimulating beverages such as coffee or energy drinks. The parents signed the consent form and provided the demographic data, following which the subject commenced the 3 steps procedure: • Baseline ASAT and EDA tests: The child was asked to sit on a stable chair in front of a computer screen, connected with EDA and EMG electrodes and requested to follow the instructions before wearing the headphones: • “You will be hearing different types of tones, some will be powerful and some will be moderate. […] When the session ends, all tones will be terminated” • Children diagnosed with ADHD were asked to take the MPH treatment and come back to the test room after 50 minutes. Controls were asked to take a break and return to the test room after 50 minutes. • Post 1-hour ASAT and EDA tests were conducted as at step 1. Auditory Sustained Attention Test (ASAT) […]
(§2) The session starts with 3 minutes of acclimatization period with 57 dB background noise level that is delivered continuously throughout the session. […] Ten “No stimulus” trials were recorded in order to evaluate baseline noise levels. […] The PPI is calculated as percent of the habituated/inhibited response as follows: 100−(max response to “pre+pulse” trial/max response to “pulse alone” trial×100).

[2] = system: children suffering from ADHD; experiment: Startle response, eye blink probability to startle stimuli; type: in vivo, human; settings: baseline higher than controls
Description: as §1, §2

[3] = system: children suffering from ADHD; experiment: Electro dermal activity (EDA), skin conductance; type: in vivo, human; settings: baseline higher than controls
Description: Test subjects were escorted by their parents, and were asked not to take the MPH treatment in the morning of the experiment, and not to drink stimulating beverages such as coffee or energy drinks. The parents signed the consent form and provided the demographic data, following which the subject commenced the 3 steps procedure: • Baseline ASAT and EDA tests: The child was asked to sit on a stable chair in front of a computer screen, connected with EDA and EMG electrodes and requested to follow the instructions before wearing the headphones: • “You will be hearing different types of tones, some will be powerful and some will be moderate. […] When the session ends, all tones will be terminated” • Children diagnosed with ADHD were asked to take the MPH treatment and come back to the test room after 50 minutes. Controls were asked to take a break and return to the test room after 50 minutes. • Post 1-hour ASAT and EDA tests were conducted as at step 1. […]
Electrodermal activity was monitored by changes in the skin conductance. […] An isolated skin conductance coupler (Mindlife) applied a constant 0.5V (DC) potential across the electrode pair and measured the conductivity at a sample rate of 10 Hz.
Scoring of the EDA signal: During the 3 minutes acclimatization period (subjected only to a 57 dB background white noise), all electro-dermal responses were counted as non-specific EDAs. […]

rat = rat model, cited Avital et al. 2011, PLoS One 6, e22059; cited from earlier work

COC(=O)C(c1ccccc1)C1CCCCN1 (stereo not shown) [MPH, methylphenidate]
ASAT performance (impairment across all pre-pulse intensities) following MPH treatment [1]: significantly recovered
eye blink probabilities to startle stimuli following MPH treatment [2]: do not alternate
EDAs (both specific and non-specific) following MPH treatment [3]: do not alternate
long term hormonal effects (rat): long term hormonal alterations related to hyper-anxiety and aggression
